Measurements published in US4260761A, “Intermediates for the preparation of octahydro-1H-benzo[4,5]furo[3,2,-e]-isoquinoline analgesic and narcotic antagonistic compounds” (priority 1980, dated 1981).

Assays:
Straub tail = Straub tail test (narcotic agonist effect), oral, mice; assay type: in vivo, mice (CF1 S female); conditions: tail erected 90° or more within 24 minutes
Method: Narcotic analgesics produce in mice an erection and arching of the tail (90° or more) which is referable to spinal cord stimulation. This Straub tail reaction is not produced by other analgesics, including the narcotic antagonists.
The method used was modified from Shemano, I., and Wendel, H., Tox. Appl. Pharm., 6, 334-9 (1964). CF1 S female mice (18-21 g), 10-20 mice per dose, were intubated with log scaled doses of analgesic in 1% aqueous methylcellulose. A positive Straub tail response was recorded if a tail was erected 90° or more for 5 seconds at any time within 24 minutes after dosing. A quantal Straub tail ED50 was calculated by the moving average method [Thompson, W. R., Bact. Rev., 11, 115-145 (1947)].
(§1) Most of the compounds were analgetic in the mouse antiphenylquinone test system and only a few caused Straub tail. Most also were antagonists in the mouse anti-Straub tail test.
(§2) On the other hand, the very high Straub tail ED50 's indicate that most of the compounds of the invention have very low likelihood of being addictive. […] Thus, the compounds of the invention are characterized by rapid onset of action, high oral potency and the ability to alleviate deepseated pain. Furthermore, abuse liability for most of the compounds should be extremely low or non-existent.

[1] = tested on: phenylquinone-induced writhing; experiment: Phenylquinone writhing (PQW) analgesic test, oral, mice; assay type: in vivo, mice (female white); conditions: for EFFECT ED50, Oral Anti-PQW: mice, phenylquinone writhing
Method: A standard procedure for detecting and comparing the analgesic activity of compounds in this series for which there is good correlation with human efficacy is the standard phenylquinone writhing test modified from Siegmund, et al., Proc. Soc. Exp. Biol. Med., 95, 729 (1957). A test compound suspended in 1% methocel® was given orally to fasted (17-21 hours) female white mice, 5-20 animals per double blind test. Aqueous (0.01% phenyl-p-benzoquinone) phenylquinone was injected intraperitoneally at 24 minutes later using 0.20 ml per mouse. […] The effective analgesic dose for 50% of the mice (ED50) was calculated by the moving average method of Thompson, W. R., Bact. Rev., 11, 115-145 (1947).
as §1, §2

[2] = tested on: morphine-induced Straub tail; experiment: Anti-Straub tail test (antagonism of morphine-induced Straub tail), mice; assay type: in vivo, mice (female CF1 S)
Method: This property is the basis of a mouse test for narcotic antagonists.
Female CF1 S mice (fasted 17-21 hrs.), 5 per dose, were injected orally or subcutaneously with test drug at 0.67, 2, 6, 18, 54 and 162 mg/kg or other appropriate doses in 0.20 ml 1% Methocel® per mouse. Five minutes later, 30 mg/kg of morphine sulfate in 0.20 ml 1% Methocel® per mouse was given intraperitoneally starting ten minutes later, the mice were observed continuously for 5 minutes for evidence of Straub tail. Prevention of a 90° Straub tail during this observation period was taken as indication of narcotic antagonist ability.
as §1, §2

[3] = background; cited from earlier work
opiate analgesics = conditions: background; cited from earlier work
[4] = Lasagna and Beecher 1954; cited from earlier work
[5] = tested on: morphine-induced Straub tail; conditions: mice; Blumberg et al. 1968; cited from earlier work

CN1CC[C@]23c4cccc(O)c4O[C@H]2CCC[C@H]3C1 (relative stereo) [Example 3, 3-Methyl-2,3,4,4aα,5,6,7,7aα-octahydro-1H-benzo[4,5]furo[3,2-e]isoquinolin-9-ol]
ED50 (Straub tail; Mus musculus, 0.4 h): 135 mg/kg

Oc1cccc2c1O[C@H]1CCC[C@H]3CN(CC4CC4)CC[C@@]231 (relative stereo) [Example 5, 3-Cyclopropylmethyl-2,3,4,4aα,5,6,7,7aα-octahydro-1H-benzo[4,5]furo[3,2-e]isoquinolin-9-ol]
analgesic potency relative to morphine ([1]; mouse analgesia data): several times greater potency than morphine

COc1cccc2c1O[C@H]1CCC[C@H]3CN(Cc4ccccc4)CC[C@@]231 (relative stereo) [Example 10, 3-Benzyl-9-methoxy-2,3,4,4aα,5,6,7,7aα-octahydro-1H-benzo[4,5]furo[3,2-e]isoquinoline]
narcotic antagonism ([2]; mouse anti-Straub tail test): pure narcotic antagonists

COc1cccc2c1O[C@H]1CCC[C@H]3CN(CC#N)CC[C@@]231 (relative stereo) [Example 20, 9-Methoxy-2,3,4,4aα,5,6,7,7aα-octahydro-1H-benzo[4,5]furo[3,2-e]isoquinoline-3-acetonitrile]
ED50 ([2]; Mus musculus, sc, subcutaneous, mice, vs morphine sulfate 30 mg/kg i.p., read-out: EFFECT ED50, Anti-Straub Tail (s.c.)): 27 mg/kg

CN1CCC23c4cccc(O)c4OC2CCCC3C1 (single isomer, unassigned) [Example 3 (+)isomer]
EFFECT ED50, Anti-Straub Tail (s.c.) ([2]; subcutaneous, mice, vs morphine sulfate 30 mg/kg i.p., listed as 3 (+)isomer): 3.3
EFFECT ED50, Oral Anti-PQW ([1]; listed as 3 (+)isomer): 61
EFFECT ED50, Oral Straub-Tail (Straub tail): > 135

CN1CCC23c4cccc(O)c4OC2CCCC3C1 (single isomer, unassigned) [Example 3 (-) isomer]
EFFECT ED50, Anti-Straub Tail (s.c.) ([2]; subcutaneous, mice, vs morphine sulfate 30 mg/kg i.p., listed as 3 (-) isomer): 0.14
EFFECT ED50, Oral Anti-PQW ([1]; listed as 3 (-) isomer): 2.1
EFFECT ED50, Oral Straub-Tail (Straub tail): > 135

CN1CC[C@]23c4c5ccc(O)c4O[C@H]2[C@@H](O)C=C[C@H]3[C@H]1C5 [Morphine]
EFFECT ED50, Oral Anti-PQW [1]: 3.0
EFFECT ED50, Oral Straub-Tail (Straub tail): 48

C=CCN1CC[C@]23CCCC[C@H]2[C@H]1Cc1ccc(O)cc13 [levallorphan]
intrinsic analgesic activity [3]: some analgesic effects by themselves
antagonism of opiate analgesics (opiate analgesics): effectively antagonize overdoses of the opiate analgesics

C=CCN1CC[C@]23c4c5ccc(O)c4O[C@H]2[C@@H](O)C=C[C@H]3[C@H]1C5 [nalorphine]
analgetic properties in man [4]: also has analgetic properties in man
intrinsic analgesic activity [3]: some analgesic effects by themselves
prevention of morphine-induced Straub tail [5]: prevent the induction of Straub tail in mice
antagonism of opiate analgesics (opiate analgesics): effectively antagonize overdoses of the opiate analgesics

C=CCN1CC[C@]23c4c5ccc(O)c4O[C@H]2C(=O)CC[C@@]3(O)[C@H]1C5 [naloxone]
prevention of morphine-induced Straub tail [5]: prevent the induction of Straub tail in mice
antagonism of emetic effect of meperidine (opiate analgesics): antagonizes the emetic effect of meperidine
antagonism of opiate analgesics (opiate analgesics): effectively antagonize overdoses of the opiate analgesics
